Source: patent publication US20230069886A1, “AROMATIC SULPHONAMIDES DERIVATIVES THAT INHIBITS PDI A3, THEIR SYNTHESIS AND USE” (Uniwersytet Jagiellonski, priority 2020, published 2023)

What was measured:
HT-1080 = assay: MTT antiproliferative assay, 48 h, HT-1080; format: cell-based, human; settings: 48-hour exposition, read-out: Cytotoxicity, IC50, μM HT-1080
Description: (§1) Anticancer activity of compounds of invention, PDI A3-inhibitors has been tested in vitro in classical antiproliferative assay in various cancer cells lines. Monolayer tumor cell lines MDA-MB-231 (human mammary breast adenocarcinoma), MCF-7 (human breast adenocarcinoma, estrogen-positive), HT-1080 (human fibrosarcoma) and Caco-2 (human colon adenocarcinoma) were cultured in standard medium DMEM (Dulbecco's modified Eagle's medium) (“Sigma”) supplemented with 10% foetal bovine serum (“Sigma”). About 2000-4000 cells per well (depending on line nature) were placed in 96-well plates and after 24 h compounds were added to the wells. Untreated cells were used as a control. The plates were incubated for 48 h, 37° C., 5% CO2. The number of surviving cells was determined using 3-(4,5-dimethylthiazol-2-yl)-2,5-diphenyltetrazolinium bromide (MTT). MTT-test: after incubating culture medium was removed and 200 μL fresh medium with 20 μL MTT (2 mg/mL in HBSS) was added in each well of the plate. After incubation (3 hr., 37° C., 5% CO2), the medium with MTT was removed and 200 μL DMSO were added at once to each sample. The samples were tested at 540 nm on Thermo Scientific Multiskan EX microplate photometer. The half-maximal inhibitory concentration (IC50) of each compound was calculated using Graph Pad Prism® 3.0.

CaCo-2 = assay: MTT antiproliferative assay, 48 h, Caco-2; format: cell-based, human; settings: 48-hour exposition, read-out: Cytotoxicity, IC50, μM CaCo-2
Description: as §1

PDI A3 = target: T1, PDI A3 (Homo sapiens, UniProt P30101); assay: PDI A3 inhibition, insulin turbidimetric assay; format: biochemical; settings: 10 ug/ml PDI A3, incubated 60 min at 37° C., turbidity at 650 nm; read-out: Inhibition of PDI A3 (EC 50)
T1 construct: purchased Mybiosource; host or cells: E. coli
T1 sequence (P30101 25-505): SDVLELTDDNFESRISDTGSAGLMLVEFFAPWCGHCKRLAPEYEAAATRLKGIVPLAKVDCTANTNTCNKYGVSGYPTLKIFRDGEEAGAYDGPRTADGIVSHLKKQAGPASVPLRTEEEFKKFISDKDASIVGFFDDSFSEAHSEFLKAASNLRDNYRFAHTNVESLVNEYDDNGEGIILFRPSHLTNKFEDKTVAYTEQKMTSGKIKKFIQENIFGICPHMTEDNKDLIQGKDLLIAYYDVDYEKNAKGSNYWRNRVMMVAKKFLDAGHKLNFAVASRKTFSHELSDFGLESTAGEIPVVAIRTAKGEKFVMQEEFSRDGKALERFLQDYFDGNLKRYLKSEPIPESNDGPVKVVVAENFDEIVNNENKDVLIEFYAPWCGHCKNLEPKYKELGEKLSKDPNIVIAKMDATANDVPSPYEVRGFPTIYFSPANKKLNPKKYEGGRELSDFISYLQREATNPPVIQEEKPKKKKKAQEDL
Description: The inhibitory effects compounds of invention on activity of PDIA3 was assess based on the insulin turbidimetric assay. Enzymatic activity of PDIA3 was confirmed by measuring the turbidity increase at 650 nm due to insulin reduction. The assay mixture was prepared by addition 10 ug/ml PDI A3 (E. coli recombinant protein; Mybiosource), […] phosphate buffer (pH7.6), 1 mM EDTA, 0.087 mM DTT and with or without tested compound and was incubated for 60 min, at 37° C. Reaction was started by addition of insulin and DTT. Final concentration of insulin and DTT in assay mixture were 0.15 mMv and 0.174 mMv, respectively. Turbidity was detected at 650 nm against reference samples without PDJs. The measurements were performed at 650 nm using 120-s recordings.

MCF-7 = assay: MTT antiproliferative assay, 48 h, MCF-7; format: cell-based, human; settings: 48-hour exposition, read-out: Cytotoxicity, IC50, μM MCF-7
Description: as §1

MDA-MB-231 = assay: MTT antiproliferative assay, 48 h, MDA-MB-231; format: cell-based, human; settings: 48-hour exposition, read-out: Cytotoxicity, IC50, μM MDA-MB-231
Description: as §1

Methyl 1-(4-propylphenyl)sulfonylaziridine-2-carboxylate [Compound C-3304]
IC50 (HT-1080): 17 ± 3 µM
IC50 (CaCo-2): 10 ± 1 µM
EC50 (PDI A3): 190 µM
IC50 (MCF-7): 49 ± 1 µM
IC50 (MDA-MB-231): 13 ± 1 µM
